Reference: US12600716B2 (Gannex Pharma Co., Ltd., priority 2020, dated 2026)
Where two headings read alike, the source gives them in different places.

Legend:
human FXR protein = biological target: T1, human FXR protein (Homo sapiens, UniProt Q96RI1); test: FXR agonist binding ability: time-resolved fluorescence (LanthaScreen) FXR/coactivator assay; type: biochemical; details: GST-labeled human FXR, fluorescein-labeled coactivator, TR-FRET
T1 construct: purchased Invitrogen
Method: FXR Agonist Binding Ability Evaluation of the activation effect of the compound of the present invention with regard to the binding of FXR to its co-stimulatory factor SRC-1 was conducted by using time-resolved analytical techniques. Protein: glutathione-S-transferase (GST)-labeled human FXR protein (Invitrogen) • 2. Coactivator: Fluorescein-labeled steroid receptor coactivator (SRC2-2) (Invitrogen) • 3. Detection reagent: LanthaScreen Time-Resolved Fluorescence Analysis Kit (Invitrogen) • 1. The compound was prepared into a 10 mM DMSO stock solution and stored in a −20° C. refrigerator for a long time. • 2. The compound was diluted to 1 mM before the experiment, and then the compound was diluted 3-fold to 10 concentration points using DMSO. Then use buffer G (Invitrogen, PV4553) to dilute these 10 concentration points by 50 times to become a working fluid. Add 10 μl of each working solution to each well of a 384-well plate. • 3. Prepare a human FXR protein solution (final concentration 20 nM) in chilled buffer G and add 5 μl of human FXR protein solution to each well of a 384-well plate. • 4. Prepare a mix of buffer G containing 2 μM fluorescein-labeled steroid receptor coactivator and 20 nM GST antibody. • 5. Add 5 μl of the mixture prepared in Step 4 to a 384-well plate. • 6. Centrifuge the 384-well plate at 1000 g for 1 minute. • 7. Incubate for 1 hour at room temperature in the dark. • 8. Read the 384-well plate at 520 nm and 495 nm on an Envision 2104 plate reader. • 9. Calculate the EC50 value of the activation effect of the compound.

hFXR-LBD-GAL4 = biological target: T2, hFXR-LBD-GAL4 (Homo sapiens, UniProt Q96RI1); test: FXR agonist transactivation ability: luciferase reporter gene in HEK293T; type: cell-based; details: read-out: Cell activity
T2 construct: GAL4 (fusion partner); host or cells: HEK293T
T2 sequence (Q96RI1 262-486 limits assumed): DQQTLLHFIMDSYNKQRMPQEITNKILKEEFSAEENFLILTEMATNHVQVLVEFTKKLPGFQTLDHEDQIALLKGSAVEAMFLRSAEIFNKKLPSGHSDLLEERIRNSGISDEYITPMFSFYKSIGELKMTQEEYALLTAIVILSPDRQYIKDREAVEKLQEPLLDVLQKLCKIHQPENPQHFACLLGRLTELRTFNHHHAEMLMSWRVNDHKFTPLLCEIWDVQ
Method: FXR Agonist Transactivation Ability
Evaluation of the ability of the compound of the present invention to promote FXR transactivation was conducted by using luciferase reporter gene expression technology.
• 1. Cell line: HEK293T (Invitrogen) • 2. Expression plasmid: pBIND-hFXR-LBD-GAL4 (Promega), pGL4.35-luciferase (Promega) • 3. Cell culture medium: 10% serum and penicillin/streptomycin double antibody in DMEM medium • 4. Detection reagent: Steady-Glo fluorescence detection system (Promega). • 5. Transfection reagent: TransIT-293 Transfection Reagent (MIRUS BIO)
• 1. The compound was prepared into a 10 mM DMSO stock solution and stored in a −20° C. refrigerator for a long time. • 2. Resuscitation HEK293T cells were seeded in 10 cm culture dishes at a concentration of 5.5×10^6 and incubated for 16 hours at 37° C. in a 5% CO2 incubator. • 3. Return the transfection reagent to room temperature before transfection. The Trans-IT solution was added dropwise to Opti-MEM, and mixed by inversion for 5 minutes; the expression plasmid was added, mixed by inversion, and incubated at room temperature for 20 minutes. • 4. Add the transfection mixture from Step 3 to the prepared 10 cm dish in Step 2 and incubate for 5-6 hours in a 5% CO2 incubator. • 5. Dilute the compound 3 folds to 10 concentration points using DMSO; add 25 nl of compound per well in a 384-well plate using an Echo 550 sonic pipette; add HEK293T cells to the 384-well plate at a concentration of 15,000 cells/well; 37° C. incubate for 16-20 hours in a 5% CO2 incubator. • 6. Add 25 μl of Steady-Glo Fluorescent Reagent to each well and read the fluorescence on an Envision 2104 plate reader. • 7. Calculate the EC50 value of the activation of the compound.

[1] = Mouse pharmacokinetic studies (IV and PO); type: in vivo, Male CD-1 mice; details: for PO F: PO 10 mg/kg vs IV 2.0 mg/kg; for Vd / AUC(0-t) / clearance / half-life / Cmax / Tmax: male, CD-1, plasma; for clearance: read-out: IV Cl; for half-life: read-out: IV T½ (converted)
Method: Mouse Pharmacokinetic Studies
Typical PK study procedure. For i.v. PK studies, a group of three fasted Male CD-1 mice were dosed with the compound (2.0 mg/kg, 0.50 mg/mL in 5% solutol in saline, clear solution), and 0.02 mL blood was collected at 0.0830, 0.250, 0.500, 1.00, 2.00, 4.00, 8.00, 24.0 h. For PO PK studies, a group of three fasted Male CD-1 mice were dosed with the compound (10 mg/kg, 1 mg/mL in 5% solutol in saline, clear solution), and 0.02 mL blood was collected at 0.250, 0.500, 1.00, 2.00, 4.00, 6.00, 8.00, 24.0 h. The blood was collected into EP tubes (containing EDTA K20.85-1.15 mg) and centrifuged at 3,000 g or 3,200 g at 4° C. for 10 min) and plasma was isolated and divided into two vials. One was used for bioanalysis and one was kept as backup. The samples were kept at −60° C. or below, until being analyzed by LC MS/MS. The samples were analyzed with AB SCIEX INSTRUMENTS LC-MS/MS AU-Triple Quad 6500 Plus and data were processed with Phoenix WinNonlin 6.3 (IV-noncompartmental model and PO-noncompartmental model).

[2] = IV 2.0 mg/kg, read-out: IV AUC 0-t
[3] = PO 10 mg/kg, read-out: PO AUC 0-t

EC50 (human FXR protein) [nM]	EC50 (hFXR-LBD-GAL4) [nM]	PO F [1] [%]	Vd ([1]; IV 2.0 mg/kg) [L/kg]	AUC(0-t) [1, 2] [ng·h/mL]	clearance ([1]; IV 2.0 mg/kg) [mL/min/kg]	half-life ([1]; IV 2.0 mg/kg) [min]	Cmax ([1]; PO 10 mg/kg) [ng/mL]	Tmax ([1]; PO 10 mg/kg) [min]	AUC(0-t) [1, 3] [ng·h/mL]	Compound
50 to 500	< 200	52.6	0.66	3550	9.26	96	5500	25	9360	Cc1nc(Oc2ccc3cc(OCc4c(-c5c(Cl)cccc5Cl)noc4C4CC4)ccc3c2)ccc1C(=O)O [Compound 10, 6-((6-((5-cyclopropyl-3-(2,6-dichlorophenyl)isoxazol-4-yl)methoxy)naphthalen-2-yl)oxy)-2-methylnicotinic acid]
< 50	500 to 1000	33.3	0.294	4980	6.66	86.4	5730	30	8330	O=C(O)c1cccc(Oc2ccc3cc(OCc4c(-c5c(Cl)cccc5Cl)noc4C4CC4)ccc3c2)n1 [Compound 11, 6-((6-((5-cyclopropyl-3-(2,6-dichlorophenyl)isoxazol-4-yl)methoxy)naphthalen-2-yl)oxy)picolinic acid]
50 to 500	< 200	46.2	1.75	969	35.8	76.8	1480	30	2220	O=C(O)c1ccc(Oc2ccc3cc(OCc4c(-c5c(Cl)cccc5Cl)noc4C4CC4)ccc3c2Cl)nc1 [Compound 21, 6-((1-chloro-6-((5-cyclopropyl-3-(2,6-dichlorophenyl)isoxazol-4-yl)methoxy)naphthalen-2-yl)oxy)nicotinic acid]
< 50	< 200	32	1.84	448	73.8	50.2	894	30	718	O=C(O)c1ccc(Oc2cccc3cc(OCc4c(-c5c(Cl)cccc5Cl)noc4C4CC4)ccc23)nc1 [Compound 22, 6-((6-((5-cyclopropyl-3-(2,6-dichlorophenyl)isoxazol-4-yl)methoxy)naphthalen-1-yl)oxy)nicotinic acid]
< 50	< 200	12	2.94	330	105	56.4	209	18	198	O=C(O)c1ccnc(Oc2cccc3cc(OCc4c(-c5c(Cl)cccc5Cl)noc4C4CC4)ccc23)c1 [Compound 24, 2-((6-((5-cyclopropyl-3-(2,6-dichlorophenyl)isoxazol-4-yl)methoxy)naphthalen-1-yl)oxy)isonicotinic acid]
< 50	< 200	17	0.745	969	35	37.2	900	30	830	O=C(O)c1ccc(F)cc1Oc1cccc2cc(OCc3c(-c4c(Cl)cccc4Cl)noc3C3CC3)ccc12 [Compound 26, 2-((6-((5-cyclopropyl-3-(2,6-dichlorophenyl)isoxazol-4-yl)methoxy)naphthalen-1-yl)oxy)-4-fluorobenzoic acid]
50 to 500	> 1000	–	–	–	–	–	–	–	–	Cc1nc(Oc2ccc3c(F)c(OCc4c(-c5c(Cl)cccc5Cl)noc4C4CC4)ccc3c2)ccc1C(=O)O [Compound 37, 6-((6-((5-cyclopropyl-3-(2,6-dichlorophenyl)isoxazol-4-yl)methoxy)-5-fluoronaphthalen-2-yl)oxy)-2-methylnicotinic acid]
< 50	500 to 1000	–	–	–	–	–	–	–	–	O=C(O)c1ccc(Oc2ccc3ccc(OCc4c(-c5c(Cl)cccc5Cl)noc4C4CC4)c(F)c3c2)nc1 [Compound 38, 6-((7-((5-cyclopropyl-3-(2,6-dichlorophenyl)isoxazol-4-yl)methoxy)-8-fluoronaphthalen-2-yl)oxy)nicotinic acid]
< 50	< 200	–	–	–	–	–	–	–	–	Cc1nc(Oc2cccc3c(F)c(OCc4c(-c5c(Cl)cccc5Cl)noc4C4CC4)ccc23)ccc1C(=O)O [Compound 39, 6-((6-((5-cyclopropyl-3-(2,6-dichlorophenyl)isoxazol-4-yl)methoxy)-5-fluoronaphthalen-1-yl)oxy)-2-methylnicotinic acid]
> 500	> 1000	–	–	–	–	–	–	–	–	O=C(O)c1ccc(Oc2c(Cl)cc(Cl)c3cc(OCc4c(-c5c(Cl)cccc5Cl)noc4C4CC4)ccc23)nc1 [Compound 41, 6-((2,4-dichloro-6-((5-cyclopropyl-3-(2,6-dichlorophenyl)isoxazol-4-yl)methoxy)naphthalen-1-yl)oxy)nicotinic acid]
> 500	> 1000	–	–	–	–	–	–	–	–	O=C(O)c1ccc(Oc2c(Cl)ccc3cc(OCc4c(-c5c(Cl)cccc5Cl)noc4C4CC4)ccc23)nc1 [Compound 42, 6-((2-chloro-6-((5-cyclopropyl-3-(2,6-dichlorophenyl)isoxazol-4-yl)methoxy)naphthalen-1-yl)oxy)nicotinic acid]
50 to 500	500 to 1000	–	–	–	–	–	–	–	–	Cc1nc(Oc2ccc3cc(OCc4c(-c5c(Cl)cccc5Cl)noc4C4CC4)ccc3c2Cl)ccc1C(=O)O [Compound 43, 6-((1-chloro-6-((5-cyclopropyl-3-(2,6-dichlorophenyl)isoxazol-4-yl)methoxy)naphthalen-2-yl)oxy)-2-methylnicotinic acid]
50 to 500	< 200	–	–	–	–	–	–	–	–	Cc1nc(Oc2c(Cl)ccc3cc(OCc4c(-c5c(Cl)cccc5Cl)noc4C4CC4)ccc23)ccc1C(=O)O [Compound 46, 6((2-chloro-6 ((5-cyclopropyl-3-(2,6-dichlorophenyl)isoxazol-4-yl)methoxy)naphthalen-1-yl)oxy)-2-methylnicotinic acid]
< 50	< 200	–	–	–	–	–	–	–	–	O=C(O)c1cccnc1Oc1c(F)ccc2cc(OCc3c(-c4c(Cl)cccc4Cl)noc3C3CC3)ccc12 [Compound 48, 2-((6-((5-cyclopropyl-3-(2,6-dichlorophenyl)isoxazol-4-yl)methoxy)-2-fluoronaphthalen-1-yl)oxy)nicotinic acid]
50 to 500	> 1000	–	–	–	–	–	–	–	–	O=C(O)c1c(F)cccc1Oc1cccc2cc(OCc3c(-c4c(Cl)cccc4Cl)noc3C3CC3)ccc12 [Compound 49]
